Assay [1] concerns the target 5-hydroxytryptamine receptor 6 (Homo sapiens, UniProt P50406). Briefly: Displacement of [3H]LSD from human 5-hydroxytryptamine 6 receptor expressed in HEK 293 cells. It counts as cell-based, HEK293.
Assay [2] deals with T1, 5-hydroxytryptamine receptor 1A (Homo sapiens) (UniProt P08908).
T1 sequence (whole entry): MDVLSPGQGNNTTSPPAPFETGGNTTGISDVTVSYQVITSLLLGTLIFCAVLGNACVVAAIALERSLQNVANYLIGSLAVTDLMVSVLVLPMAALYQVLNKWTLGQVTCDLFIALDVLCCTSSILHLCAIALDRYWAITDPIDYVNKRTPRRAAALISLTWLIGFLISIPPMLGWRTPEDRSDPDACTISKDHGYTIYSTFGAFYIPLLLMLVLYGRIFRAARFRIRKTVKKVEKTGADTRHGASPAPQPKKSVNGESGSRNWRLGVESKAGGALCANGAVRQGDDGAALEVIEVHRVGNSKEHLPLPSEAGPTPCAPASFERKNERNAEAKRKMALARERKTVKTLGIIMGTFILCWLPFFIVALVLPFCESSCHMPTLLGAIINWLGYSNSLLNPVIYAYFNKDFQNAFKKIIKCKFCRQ
Briefly: In vitro binding affinity against human 5-hydroxytryptamine 1A receptor at a concentration of 100 (nM).

The target in assay [3] is 5-hydroxytryptamine receptor 1B (Homo sapiens) (UniProt P28222). Kind of assay: In vitro binding affinity against human 5-hydroxytryptamine 1B receptor at a concentration of 100 (nM).
5-hydroxytryptamine receptor 1B (Homo sapiens), sequence (P28222 whole entry): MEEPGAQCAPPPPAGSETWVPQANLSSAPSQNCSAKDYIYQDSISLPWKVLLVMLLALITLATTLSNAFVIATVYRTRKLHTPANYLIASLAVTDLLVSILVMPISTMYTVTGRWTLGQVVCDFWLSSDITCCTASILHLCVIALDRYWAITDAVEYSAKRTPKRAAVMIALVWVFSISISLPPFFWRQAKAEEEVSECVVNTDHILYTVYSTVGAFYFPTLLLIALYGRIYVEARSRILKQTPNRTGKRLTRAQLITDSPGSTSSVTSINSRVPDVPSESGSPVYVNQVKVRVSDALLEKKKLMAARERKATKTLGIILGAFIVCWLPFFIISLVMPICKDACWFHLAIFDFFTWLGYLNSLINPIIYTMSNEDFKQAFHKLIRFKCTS
Assay [4] concerns the target T2, 5-hydroxytryptamine receptor 1F (Homo sapiens) (UniProt P30939).
T2 sequence (whole entry): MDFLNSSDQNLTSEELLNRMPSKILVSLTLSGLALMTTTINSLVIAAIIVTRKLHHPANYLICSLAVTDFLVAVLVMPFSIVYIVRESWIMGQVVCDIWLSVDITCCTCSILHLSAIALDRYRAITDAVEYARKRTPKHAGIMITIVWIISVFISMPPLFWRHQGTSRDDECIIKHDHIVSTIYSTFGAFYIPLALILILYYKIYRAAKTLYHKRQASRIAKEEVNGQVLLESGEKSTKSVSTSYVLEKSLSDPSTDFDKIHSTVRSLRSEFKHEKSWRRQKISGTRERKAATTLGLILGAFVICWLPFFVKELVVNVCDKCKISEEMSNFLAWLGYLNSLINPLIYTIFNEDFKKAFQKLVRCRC
Briefly: In vitro binding affinity against human 5-hydroxytryptamine 1F receptor at a concentration of 100 (nM).

The target in assay [5] is 5-hydroxytryptamine receptor 1D (Homo sapiens) (UniProt P28221). Briefly: In vitro binding affinity against human 5-hydroxytryptamine 1D receptor at a concentration of 100 (nM).
5-hydroxytryptamine receptor 1D (Homo sapiens), sequence (P28221 whole entry): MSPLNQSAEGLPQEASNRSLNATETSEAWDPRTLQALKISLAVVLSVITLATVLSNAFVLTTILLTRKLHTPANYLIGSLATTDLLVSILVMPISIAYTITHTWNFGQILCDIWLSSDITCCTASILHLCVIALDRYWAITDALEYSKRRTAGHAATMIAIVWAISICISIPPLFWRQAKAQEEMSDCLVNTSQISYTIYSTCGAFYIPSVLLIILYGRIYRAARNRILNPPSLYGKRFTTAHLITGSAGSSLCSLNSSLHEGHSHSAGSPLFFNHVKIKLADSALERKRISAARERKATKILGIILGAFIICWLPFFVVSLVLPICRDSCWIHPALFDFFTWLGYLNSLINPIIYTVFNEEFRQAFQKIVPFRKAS
In assay [6] the target is 5-hydroxytryptamine receptor 2A (Homo sapiens) (UniProt P28223). Briefly: In vitro binding affinity against human 5-hydroxytryptamine 2A receptor at a concentration of 100 (nM).
5-hydroxytryptamine receptor 2A (Homo sapiens), sequence (P28223 whole entry): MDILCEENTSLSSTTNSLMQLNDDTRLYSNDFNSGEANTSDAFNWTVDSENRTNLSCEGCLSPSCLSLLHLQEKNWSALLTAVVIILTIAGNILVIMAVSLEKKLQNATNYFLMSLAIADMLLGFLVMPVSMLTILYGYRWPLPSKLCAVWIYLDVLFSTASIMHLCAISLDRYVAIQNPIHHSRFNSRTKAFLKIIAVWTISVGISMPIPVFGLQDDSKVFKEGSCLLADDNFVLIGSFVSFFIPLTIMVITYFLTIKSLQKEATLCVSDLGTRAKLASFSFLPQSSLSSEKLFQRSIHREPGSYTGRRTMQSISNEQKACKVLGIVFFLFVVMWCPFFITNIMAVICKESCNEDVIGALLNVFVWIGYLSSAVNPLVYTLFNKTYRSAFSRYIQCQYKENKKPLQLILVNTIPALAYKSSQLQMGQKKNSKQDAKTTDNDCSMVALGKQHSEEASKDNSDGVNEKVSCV
Assay [7] concerns the target 5-hydroxytryptamine receptor 2B (Homo sapiens) (UniProt P41595). Briefly: In vitro binding affinity against human 5-HT2B receptor at a concentration of 100 (nM).
Assay [8] deals with T3, 5-hydroxytryptamine receptor 2C (Homo sapiens) (UniProt P28335).
T3 sequence (whole entry): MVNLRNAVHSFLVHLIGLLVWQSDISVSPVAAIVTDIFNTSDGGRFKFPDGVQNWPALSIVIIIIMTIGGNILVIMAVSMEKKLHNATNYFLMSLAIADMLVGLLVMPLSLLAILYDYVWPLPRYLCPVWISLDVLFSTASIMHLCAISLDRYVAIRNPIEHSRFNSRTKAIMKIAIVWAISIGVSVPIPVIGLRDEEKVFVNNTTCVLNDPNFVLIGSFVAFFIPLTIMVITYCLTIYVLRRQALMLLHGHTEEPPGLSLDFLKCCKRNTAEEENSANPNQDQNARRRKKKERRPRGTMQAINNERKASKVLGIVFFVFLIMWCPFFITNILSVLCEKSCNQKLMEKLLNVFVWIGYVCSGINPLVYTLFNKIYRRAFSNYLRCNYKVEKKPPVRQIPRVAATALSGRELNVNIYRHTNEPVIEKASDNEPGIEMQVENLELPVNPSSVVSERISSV
Briefly: In vitro binding affinity against human 5-hydroxytryptamine 2C receptor at a concentration of 100 (nM).

Assay [9] has as its target 5-hydroxytryptamine receptor 7 (Homo sapiens) (UniProt P34969). Briefly: In vitro binding affinity against human 5-hydroxytryptamine 7 receptor at a concentration of 100 (nM).
For assay [10], the target named is Adrenergic receptor alpha-1 (Homo sapiens) (UniProt P35348+P25100+P35368). Briefly: In vitro binding affinity against human Alpha-1 adrenergic receptor at a concentration of 100 (nM). It counts as protein assay.
The target in assay [11] is D(1A) dopamine receptor (Homo sapiens) (UniProt P21728). Briefly: In vitro binding affinity against human Dopamine receptor D1 at a concentration of 100 (nM).
D(1A) dopamine receptor (Homo sapiens), sequence (P21728 whole entry): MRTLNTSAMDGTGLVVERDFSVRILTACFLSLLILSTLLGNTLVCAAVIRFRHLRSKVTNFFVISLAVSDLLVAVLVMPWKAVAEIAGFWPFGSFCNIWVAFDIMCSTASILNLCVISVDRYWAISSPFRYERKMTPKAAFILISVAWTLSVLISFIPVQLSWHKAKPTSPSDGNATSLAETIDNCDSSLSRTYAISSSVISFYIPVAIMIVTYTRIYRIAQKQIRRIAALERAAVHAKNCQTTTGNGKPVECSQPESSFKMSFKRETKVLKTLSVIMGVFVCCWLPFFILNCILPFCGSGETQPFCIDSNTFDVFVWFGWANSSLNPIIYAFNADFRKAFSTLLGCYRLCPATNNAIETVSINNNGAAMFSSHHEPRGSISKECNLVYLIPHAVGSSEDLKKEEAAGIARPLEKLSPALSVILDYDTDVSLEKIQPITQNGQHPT
In assay [12] the target is D(3) dopamine receptor (Homo sapiens) (UniProt P35462). Kind of assay: In vitro binding affinity against human Dopamine receptor D3 at a concentration of 100 (nM).
D(3) dopamine receptor (Homo sapiens), sequence (P35462 whole entry): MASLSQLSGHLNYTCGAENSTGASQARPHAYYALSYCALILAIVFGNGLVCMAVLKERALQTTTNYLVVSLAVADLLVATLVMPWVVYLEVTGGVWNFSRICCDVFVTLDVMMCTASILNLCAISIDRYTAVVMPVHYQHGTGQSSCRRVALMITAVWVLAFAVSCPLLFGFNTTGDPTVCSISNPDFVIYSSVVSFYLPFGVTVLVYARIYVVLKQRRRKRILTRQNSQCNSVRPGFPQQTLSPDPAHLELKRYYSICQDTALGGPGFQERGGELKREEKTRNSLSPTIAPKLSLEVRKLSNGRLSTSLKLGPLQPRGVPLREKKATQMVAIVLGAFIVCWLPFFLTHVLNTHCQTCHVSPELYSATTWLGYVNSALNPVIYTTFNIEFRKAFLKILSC
In assay [13] the target is T4, D(4) dopamine receptor (Homo sapiens) (UniProt P21917).
T4 sequence (whole entry): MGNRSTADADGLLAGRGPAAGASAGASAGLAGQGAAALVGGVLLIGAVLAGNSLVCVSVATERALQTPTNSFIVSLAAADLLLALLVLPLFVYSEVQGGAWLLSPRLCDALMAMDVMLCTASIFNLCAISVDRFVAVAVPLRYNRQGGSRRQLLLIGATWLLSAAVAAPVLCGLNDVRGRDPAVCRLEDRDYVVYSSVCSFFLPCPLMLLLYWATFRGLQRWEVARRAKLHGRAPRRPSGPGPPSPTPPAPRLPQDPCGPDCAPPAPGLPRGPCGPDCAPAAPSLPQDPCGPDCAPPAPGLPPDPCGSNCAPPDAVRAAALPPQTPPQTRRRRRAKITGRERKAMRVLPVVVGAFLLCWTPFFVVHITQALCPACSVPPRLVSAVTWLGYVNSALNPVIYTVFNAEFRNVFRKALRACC
Kind of assay: In vitro binding affinity against human Dopamine receptor D4 at a concentration of 100 (nM).

Assay [14] deals with D(1B) dopamine receptor (Homo sapiens) (UniProt P21918). Kind of assay: In vitro binding affinity against human D5 receptor at a concentration of 100 (nM).
D(1B) dopamine receptor (Homo sapiens), sequence (P21918 whole entry): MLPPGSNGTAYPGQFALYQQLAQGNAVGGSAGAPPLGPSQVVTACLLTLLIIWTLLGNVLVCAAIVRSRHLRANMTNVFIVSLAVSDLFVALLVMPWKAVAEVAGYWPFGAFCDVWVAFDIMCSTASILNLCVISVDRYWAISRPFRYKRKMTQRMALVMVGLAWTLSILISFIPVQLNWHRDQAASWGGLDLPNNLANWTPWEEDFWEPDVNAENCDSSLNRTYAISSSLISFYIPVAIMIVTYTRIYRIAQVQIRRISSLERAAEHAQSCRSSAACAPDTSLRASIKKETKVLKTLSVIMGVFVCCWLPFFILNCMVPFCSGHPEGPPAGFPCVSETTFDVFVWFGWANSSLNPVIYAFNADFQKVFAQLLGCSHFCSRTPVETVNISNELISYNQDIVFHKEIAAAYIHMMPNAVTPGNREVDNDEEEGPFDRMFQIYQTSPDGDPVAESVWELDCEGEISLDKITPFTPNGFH
Assay [15] addresses Muscarinic acetylcholine receptors; M1 & M2 (Homo sapiens) (UniProt P11229+P08172). Kind of assay: In vitro binding affinity against human Muscarinic acetylcholine receptor M1- Muscarinic acetylcholine receptor M2 at a concentration of 100 (nM). It counts as protein assay.
In assay [16] the target is D(2) dopamine receptor (Homo sapiens) (UniProt P14416). Briefly: In vitro binding affinity against human Dopamine receptor D2 at a concentration of 100 (nM).
D(2) dopamine receptor (Homo sapiens), sequence (P14416 whole entry): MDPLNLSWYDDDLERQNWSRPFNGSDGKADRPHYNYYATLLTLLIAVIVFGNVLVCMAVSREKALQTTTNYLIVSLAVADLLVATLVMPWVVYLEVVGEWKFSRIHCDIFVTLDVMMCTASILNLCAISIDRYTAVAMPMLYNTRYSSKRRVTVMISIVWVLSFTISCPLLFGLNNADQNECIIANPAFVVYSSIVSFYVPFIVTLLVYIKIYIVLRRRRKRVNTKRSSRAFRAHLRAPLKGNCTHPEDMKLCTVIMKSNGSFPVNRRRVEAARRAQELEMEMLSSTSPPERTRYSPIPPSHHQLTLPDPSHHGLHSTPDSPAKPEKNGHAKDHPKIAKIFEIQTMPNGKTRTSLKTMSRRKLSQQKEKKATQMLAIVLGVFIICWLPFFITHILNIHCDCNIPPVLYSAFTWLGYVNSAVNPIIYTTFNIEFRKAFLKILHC

5-hydroxytryptamine receptor 6, sequence (P50406 whole entry): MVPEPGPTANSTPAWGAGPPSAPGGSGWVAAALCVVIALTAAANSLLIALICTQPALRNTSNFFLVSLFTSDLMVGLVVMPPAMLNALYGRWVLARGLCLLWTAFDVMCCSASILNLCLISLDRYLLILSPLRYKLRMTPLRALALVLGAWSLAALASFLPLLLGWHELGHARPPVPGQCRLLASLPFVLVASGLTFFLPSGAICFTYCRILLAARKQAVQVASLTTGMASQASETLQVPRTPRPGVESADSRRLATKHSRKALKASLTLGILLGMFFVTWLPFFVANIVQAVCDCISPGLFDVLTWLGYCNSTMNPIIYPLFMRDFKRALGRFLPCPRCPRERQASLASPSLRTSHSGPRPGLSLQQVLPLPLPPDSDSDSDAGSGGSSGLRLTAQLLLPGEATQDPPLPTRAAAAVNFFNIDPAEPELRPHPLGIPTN
5-hydroxytryptamine receptor 2B (Homo sapiens), sequence (P41595 whole entry): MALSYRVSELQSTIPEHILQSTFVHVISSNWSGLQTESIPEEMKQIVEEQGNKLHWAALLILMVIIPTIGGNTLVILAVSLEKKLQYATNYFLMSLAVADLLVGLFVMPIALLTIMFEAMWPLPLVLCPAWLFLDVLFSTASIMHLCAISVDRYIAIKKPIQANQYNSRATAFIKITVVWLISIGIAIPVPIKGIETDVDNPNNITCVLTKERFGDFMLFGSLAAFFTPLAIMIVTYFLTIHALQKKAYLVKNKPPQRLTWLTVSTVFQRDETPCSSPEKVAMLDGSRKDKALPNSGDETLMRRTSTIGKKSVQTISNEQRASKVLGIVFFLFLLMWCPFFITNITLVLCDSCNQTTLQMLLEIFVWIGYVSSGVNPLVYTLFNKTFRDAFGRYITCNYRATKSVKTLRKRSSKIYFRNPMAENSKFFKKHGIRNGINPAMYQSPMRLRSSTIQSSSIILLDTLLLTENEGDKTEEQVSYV
5-hydroxytryptamine receptor 7 (Homo sapiens), sequence (P34969 whole entry): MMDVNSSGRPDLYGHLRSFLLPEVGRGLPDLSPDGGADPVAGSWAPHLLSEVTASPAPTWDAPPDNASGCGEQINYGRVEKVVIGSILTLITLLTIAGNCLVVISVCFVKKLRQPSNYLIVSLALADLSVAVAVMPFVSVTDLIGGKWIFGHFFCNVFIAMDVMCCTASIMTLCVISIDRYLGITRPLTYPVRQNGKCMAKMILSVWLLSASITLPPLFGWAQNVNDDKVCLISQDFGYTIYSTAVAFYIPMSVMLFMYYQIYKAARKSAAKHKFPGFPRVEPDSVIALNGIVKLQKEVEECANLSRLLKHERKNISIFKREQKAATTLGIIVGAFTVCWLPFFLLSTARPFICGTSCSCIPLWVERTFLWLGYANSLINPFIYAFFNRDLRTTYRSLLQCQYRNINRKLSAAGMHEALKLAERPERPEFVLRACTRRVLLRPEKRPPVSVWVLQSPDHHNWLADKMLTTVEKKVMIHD

In assay [1], `O=S(=O)(c1ccc2ccccc2c1)n1ccc2ccc(N3CCN4CCCCC4C3)cc21` (centres undefined) came in with a Ki of 3 nM.

Turning to `O=S(=O)(c1cccc2ccccc12)n1ccc2ccc(C3(O)CCN4CCCC4C3)cc21` (centres undefined), the affinity in [1], expressed as Ki, was 4.7 nM.

In turn, `O=S(=O)(c1cccc2ccccc12)n1ccc2ccc(C3CCN4CCCC4C3)cc21` (single isomer, unassigned; less polar) showed a Ki in assay [1] of 0.6 nM.

Take `O=S(=O)(c1cccc2ccccc12)n1ccc2ccc(C3=CCN4CCCC4C3)cc21` (centres undefined): in assay [1], the affinity corresponds to a Ki of 1.3 nM.

Take `O=S(=O)(c1ccc(F)cc1F)n1ccc2ccc(N3CCN4CCCCC4C3)cc21` (centres undefined): the Ki in assay [1] was found to be 3.6 nM.

Regarding `O=S(=O)(c1cccc2ccccc12)n1ccc2ccc(N3CCN4CCCC4C3)cc21` (centres undefined), the inhibition is 79% in assay [2]; 2% in assay [3]; 9% in assay [4]; 5% in [5]; 32% in assay [6]; 36% in [7]. Further, the inhibition came to 17% in assay [8]; 8% in assay [9]; 0% in assay [10]; 1% in [11]; 22% in assay [12]; 0% in assay [13]. The inhibition stood at 0% in assay [14], 0% in assay [15] and 7% in assay [16].

As to `O=S(=O)(c1ccccc1)n1ccc2ccc(N3CCN4CCCCC4C3)cc21` (centres undefined), the Ki in assay [1] was determined as 5.7 nM.

Turning to `O=S(=O)(c1cccc2ccccc12)n1ccc2ccc(N3CCN4CCCCC4C3)cc21` (centres undefined), in assay [1], the Ki came to 1.7 nM.

With `Cc1ccc(S(=O)(=O)n2ccc3ccc(N4CCN5CCCCC5C4)cc32)cc1` (centres undefined), the Ki in assay [1] stood at 4.9 nM.

`Cc1ccc(S(=O)(=O)n2ccc3ccc(N4CCN5CCCC5C4)cc32)cc1` (centres undefined) came in with a Ki in [1] of 3.3 nM.

These data come from ChEMBL document CHEMBL1133256, “6-Bicyclopiperazinyl-1-arylsulfonylindoles and 6-bicyclopiperidinyl-1-arylsulfonylindoles derivatives as novel, potent, and selective 5-HT6 receptor antagonists” (Bioorg Med Chem Lett, 2000).
